Experimental data as given in patent US20260256873A1, “MODIFIED CAVEOLIN-1 PEPTIDE FORMULATIONS AND METHODS OF MANUFACTURING AND USE THEREOF” (LUNG THERAPEUTICS, INC., priority 2022, published 2026).
Several values for one entry are separate records, joined by “and”; a condition that tells them apart may be missing. Equal values may be shown once. Read-outs that look alike come from different tables or passages of the source. Where a SMILES comes first, the peptide text is derived from it. [ ]: non-standard residue; d: D form.

Key:
[1] = Plasma pharmacokinetics of the APi2355 SAIB formulation over 42 days after single-dose subcutaneous administration; format: in vivo, male Sprague Dawley rats; details: for Tmax: sc
Experimental: (§1) The plasma pharmacokinetics of the Cav-1 peptide (APi2355) SAIB formulation prepared according to Example 1 (5.66% w/w APi2355 75.47% w/w SAIB and 18.87% w/w NMP to provide 7% w/w APi2355 to 93% w/w SAIB) were assessed over 42 days after a single-dose subcutaneous administration to male Sprague Dawley rats. The rats (n=6) received one of three batches of the APi2355 SAIB formulations prepared according to Example 1 at a dose of 2.0 mg/kg of APi2355 in 0.033 mL/kg (concentration 60.0 mg/mL). Control group of rats (n=2) received an injection of vehicle formulation containing no APi2355.
Animals were assigned to groups by a stratified randomization scheme designed to achieve similar group mean body weights. The animals were acclimated to their designated housing for at least 5 days before the day dosing. All formulations were administered in a single dose by dorsal subcutaneous (SC) injection on day 0. […] Whole blood samples (40-50 μl, by tail nick) were collected from all animals in control group at pre-dose and at 1 h and 1 day post-treatment. Blood was collected into K2EDTA tubes. Tubes were mixed gently after blood collection, chilled and centrifuged at 3000 rpm and 4° C., within 30 minutes upon collection. The resultant plasma was separated, transferred to uniquely labeled polypropylene tubes and frozen at −20° C. Plasma and tissue samples were analyzed for concentration of APi2355 using a qualified analytical procedure for LC/MS/MS.
(§2) Terminal whole blood samples (maximal volume by cardiac stick) and tissues were collected from all animals on day 42 post-treatment. Tissues included tissues from heart, liver, kidney, lung, and injection site skin patches. Additionally, lungs were processed for bronchial lavage samples. Tissue samples were analyzed for APi2355 by LC/MS/MS.

[2] = APi2355 concentrations in various tissues at 42 days post treatment (LC/MS/MS); format: in vivo; details: male, Sprague Dawley, rat, sc, 2 mg/kg, mean of 6 rats, single SC 2.0 mg/kg in SAIB formulation
Experimental: as §1
Animals were assigned to groups by a stratified randomization scheme designed to achieve similar group mean body weights. The animals were acclimated to their designated housing for at least 5 days before the day dosing. All formulations were administered in a single dose by dorsal subcutaneous (SC) injection on day 0. Whole blood samples (40-50 μl) were collected from all animals in APi2355 treated group at pre-dose and 1 h, 2 h, 4 h, 8 h, 1 day, 2 days, 4 days, 7 days, 10 days, 14 days, 21 days, 29 days, and 35 days post-treatment. Whole blood samples (40-50 μl, by tail nick) were collected from all animals in control group at pre-dose and at 1 h and 1 day post-treatment. Blood was collected into K2EDTA tubes. Tubes were mixed gently after blood collection, chilled and centrifuged at 3000 rpm and 4° C., within 30 minutes upon collection. The resultant plasma was separated, transferred to uniquely labeled polypropylene tubes and frozen at −20° C. Plasma and tissue samples were analyzed for concentration of APi2355 using a qualified analytical procedure for LC/MS/MS.
as §2

[3] = individual rats, single SC 2.0 mg/kg APi2355 in SAIB formulation, 2 mg/kg
[4] = rat plasma, single SC 2.0 mg/kg in SAIB formulation

AUC0-14, Mean ([1]; dose to day 14, rat plasma, single SC 2.0 mg/kg in SAIB formulation): 126 ng·days/mL
AUC0-22, Mean ([1]; dose to day 22, rat plasma, single SC 2.0 mg/kg in SAIB formulation): 146 ng·days/mL
AUCinf, Mean ([1]; extrapolated to infinity (AUClast + Clast/λz), rat plasma, single SC 2.0 mg/kg in SAIB formulation): 183 ng·days/mL
CL/F ([1]; in vivo, apparent plasma clearance, rat, single SC 2.0 mg/kg in SAIB formulation): 6.94 mL/min/kg
Vd/F ([1]; in vivo, apparent volume of distribution, terminal phase, rat, single SC 2.0 mg/kg in SAIB formulation, read-out: Vz/F, Mean): 133 L/kg
AUC(0-t) ([1]; in vivo, log/linear trapezoidal method, rat plasma, single SC 2.0 mg/kg in SAIB formulation, read-out: AUClast, Mean (converted)): 3940 ng·h/mL
Cmax ([1]; in vivo, rat plasma, single SC 2.0 mg/kg APi2355 in SAIB formulation): 477 ng/mL
half-life ([1]; in vivo, rat plasma, single SC 2.0 mg/kg in SAIB formulation, read-out: Half-life (terminal), Mean (converted)): 222 h
MRT last ([1]; in vivo, rat plasma, single SC 2.0 mg/kg in SAIB formulation, read-out: MRTlast, Mean (converted)): 188 h
Clast, Mean ([1]; last measurable concentration, rat plasma, single SC 2.0 mg/kg in SAIB formulation): 0.942 ng/mL
level at 1 h ([1]; male, Sprague Dawley, rat, plasma, mean of 6 rats, single SC 2.0 mg/kg APi2355 in SAIB formulation, read-out: APi2355 plasma concentration 1 hr post-treatment, Mean): 215 ng/mL
level at 2 h ([1]; male, Sprague Dawley, rat, plasma, mean of 6 rats, single SC 2.0 mg/kg APi2355 in SAIB formulation, read-out: APi2355 plasma concentration 2 hr post-treatment, Mean): 398 ng/mL
level at 4 h ([1]; male, Sprague Dawley, rat, plasma, mean of 6 rats, single SC 2.0 mg/kg APi2355 in SAIB formulation, read-out: APi2355 plasma concentration 4 hr post-treatment, Mean): 129 ng/mL
level at 8 h ([1]; male, Sprague Dawley, rat, plasma, mean of 6 rats, single SC 2.0 mg/kg APi2355 in SAIB formulation, read-out: APi2355 plasma concentration 8 hr post-treatment, Mean): 53.5 ng/mL
level at 24 h ([1]; male, Sprague Dawley, rat, plasma, mean of 6 rats, single SC 2.0 mg/kg APi2355 in SAIB formulation, read-out: APi2355 plasma concentration 1 day post-treatment, Mean): 16.7 ng/mL
level at 48 h ([1]; male, Sprague Dawley, rat, plasma, mean of 6 rats, single SC 2.0 mg/kg APi2355 in SAIB formulation, read-out: APi2355 plasma concentration 2 day post-treatment, Mean): 7.09 ng/mL
level at 96 h ([1]; male, Sprague Dawley, rat, plasma, mean of 6 rats, single SC 2.0 mg/kg APi2355 in SAIB formulation, read-out: APi2355 plasma concentration 4 day post-treatment, Mean): 2.46 ng/mL
level at 168 h ([1]; male, Sprague Dawley, rat, plasma, mean of 6 rats, single SC 2.0 mg/kg APi2355 in SAIB formulation, read-out: APi2355 plasma concentration 7 day post-treatment, Mean): 5.36 ng/mL
level at 240 h ([1]; male, Sprague Dawley, rat, plasma, mean of 6 rats, single SC 2.0 mg/kg APi2355 in SAIB formulation, read-out: APi2355 plasma concentration 10 day post-treatment, Mean): 4.01 ng/mL
level at 336 h ([1]; male, Sprague Dawley, rat, plasma, mean of 6 rats, single SC 2.0 mg/kg APi2355 in SAIB formulation, read-out: APi2355 plasma concentration 14 day post-treatment, Mean): 2.73 ng/mL
level at 528 h ([1]; male, Sprague Dawley, rat, plasma, mean of 6 rats, single SC 2.0 mg/kg APi2355 in SAIB formulation, read-out: APi2355 plasma concentration 22 day post-treatment, Mean): 2.61 ng/mL
level at 696 h ([1]; male, Sprague Dawley, rat, plasma, mean of 6 rats, single SC 2.0 mg/kg APi2355 in SAIB formulation, read-out: APi2355 plasma concentration 29 day post-treatment, Mean): 0.62 ng/mL
level at 840 h ([1]; male, Sprague Dawley, rat, plasma, mean of 6 rats, single SC 2.0 mg/kg APi2355 in SAIB formulation, read-out: APi2355 plasma concentration 35 day post-treatment, Mean): 1.29 ng/mL
level at 1008 h ([1]; male, Sprague Dawley, rat, plasma, mean of 6 rats, single SC 2.0 mg/kg APi2355 in SAIB formulation, read-out: APi2355 plasma concentration 42 day post-treatment, Mean): 0.23 ng/mL
APi2355 detectable in the plasma following administration ([1]; number of rats, single SC 2.0 mg/kg in SAIB formulation): 4 out of 6
% AUC Extrap, Mean [1, 4]: 9.00%
extrapolated AUC of AUCinf [1, 4]: < 20%
fraction of the total exposure of APi2355 occurring in the first 3 weeks after SC administration [1, 4]: Approximately ⅔
Tmax ([1]; rat, in vivo, 2 mg/kg, rat plasma, single SC 2.0 mg/kg APi2355 in SAIB formulation, read-out: Tmax, Mean (converted)): 1.99 h
Tmax ([1]; rat, in vivo, 2 mg/kg, rat plasma, single SC 2.0 mg/kg APi2355 in SAIB formulation, read-out: Tmax, median (converted)): 1.99 h
Tlast, Mean ([1]; time of last quantifiable concentration, rat plasma, single SC 2.0 mg/kg in SAIB formulation): 39.7 days
level at 1008 h ([2]; bronchoalveolar lavage fluid (BALF), read-out: Concentration in BALF (bronchoalveolar lavage fluid), Mean): 0.99 ng/mL
tissue level at time at 1008 h ([2]; heart, read-out: Concentration in Heart, Mean): 12.1 ng/g
tissue level at time at 1008 h ([2]; injection site skin, injection site skin, read-out: Concentration in Skin, Mean): 4.95 ng/g
tissue level at time at 1008 h ([2]; kidney, read-out: Concentration in Kidney, Mean): 53.2 ng/g
tissue level at time at 1008 h ([2]; liver, read-out: Concentration in Liver, Mean): 1.23 ng/g
tissue level at time at 1008 h ([2]; lung, read-out: Concentration in Lung, Mean): 68 ng/g
SMILES: CC(=O)N[C@H](C)C(=O)N[C@H](C)C(=O)N[C@@H](CCC(=O)O)C(=O)NCC(=O)N[C@@H](CCCCN)C(=O)N[C@@H](C)C(=O)N[C@@H](CO)C(=O)N[C@@H](Cc1ccccc1)C(=O)N[C@H](C(=O)N[C@H](C(=O)N[C@@H](Cc1ccccc1)C(=O)N[C@H](C(=O)N[C@H](C(=O)N[C@H](C(=O)N[C@@H](CCCCN)C(=O)NCC(=O)N[C@@H](CO)C(=O)N[C@H](C)C(=O)N[C@H](C)C(N)=O)[C@@H](C)O)C(C)C)[C@@H](C)O)[C@@H](C)O)[C@@H](C)O [APi2355, Ac-aaEGKASFTTFTVTKGSaa-NH2] (Ac-[dA][dA]EGKASFTTFTVTKGS[dA][dA]-NH2)
APi2355 plasma concentration 1 hr post-treatment [1, 3]: 202.00 ng/mL and 232.90 ng/mL and 109.02 ng/mL and 101.53 ng/mL and 84.70 ng/mL and 557.93 ng/mL
APi2355 plasma concentration 2 hr post-treatment [1, 3]: 884.98 ng/mL and 111.43 ng/mL and 37.62 ng/mL and 317.55 ng/mL and 539.82 ng/mL and 497.89 ng/mL
APi2355 plasma concentration 4 hr post-treatment [1, 3]: 26.95 ng/mL and 102.25 ng/mL and 328.27 ng/mL and 164.91 ng/mL and 97.42 ng/mL and 52.01 ng/mL
APi2355 plasma concentration 8 hr post-treatment [1, 3]: 23.90 ng/mL and 54.20 ng/mL and 80.69 ng/mL and 75.60 ng/mL and 47.06 ng/mL and 39.24 ng/mL
APi2355 plasma concentration 1 day post-treatment [1, 3]: 10.32 ng/mL and 11.86 ng/mL and 20.55 ng/mL and 12.72 ng/mL and 19.85 ng/mL and 25.11 ng/mL
APi2355 plasma concentration 2 day post-treatment [1, 3]: 6.13 ng/mL and 3.87 ng/mL and 2.54 ng/mL and 8.72 ng/mL and 14.40 ng/mL and 6.90 ng/mL
APi2355 plasma concentration 4 day post-treatment [1, 3]: 4.65 ng/mL and 3.40 ng/mL and 1.29 ng/mL and 2.17 ng/mL and 1.84 ng/mL and 1.41 ng/mL
APi2355 plasma concentration 7 day post-treatment [1, 3]: 15.91 ng/mL and 5.07 ng/mL and 2.40 ng/mL and 2.14 ng/mL and 5.18 ng/mL and 1.44 ng/mL
APi2355 plasma concentration 10 day post-treatment [1, 3]: 2.09 ng/mL and 2.04 ng/mL and 10.43 ng/mL and 5.54 ng/mL and 2.38 ng/mL and 1.58 ng/mL
APi2355 plasma concentration 14 day post-treatment [1, 3]: 1.66 ng/mL and 1.24 ng/mL and 7.00 ng/mL and 1.83 ng/mL and 1.64 ng/mL and 3.04 ng/mL
APi2355 plasma concentration 22 day post-treatment [1, 3]: 1.68 ng/mL and 1.87 ng/mL and 2.49 ng/mL and 5.68 ng/mL and 1.98 ng/mL and 1.93 ng/mL
APi2355 plasma concentration 29 day post-treatment [1, 3]: 0.98 ng/mL and 0.50 ng/mL and 0.85 ng/mL and 0.65 ng/mL and 0.58 ng/mL and 0.16 ng/mL
APi2355 plasma concentration 35 day post-treatment [1, 3]: 0.81 ng/mL and 1.13 ng/mL and 0.78 ng/mL and 0.10 ng/mL and 0.72 ng/mL and 4.20 ng/mL
APi2355 plasma concentration 42 day post-treatment [1, 3]: 0.88 ng/mL and 0.29 ng/mL and 0.15 ng/mL and 0.00 ng/mL (2×) and 0.04 ng/mL
